From patent publication US7563903B2, “Acylaminothiazole derivatives, their preparation and their therapeutic use” (Sanofi-Aventis, priority 2003, dated 2009)

Row | SMILES | melting point [°C]
1 | CCC[C@H](NC(=O)C(O)C(C)(C)C)C(=O)Nc1ncc(-c2ccccc2COc2c(Cl)cccc2Cl)s1 (stereo partly drawn) [compound 41, (2S)—N-(5-{2-[(2,6-dichlorophenoxy)methyl]phenyl}-1,3-thiazol-2-yl)-2-[(2-hydroxy-3,3-dimethylbutanoyl)amino]pentanamide] | 126
2 | CCC[C@H](NC(=O)[C@@H](O)C(C)(C)C)C(=O)Nc1ncc(-c2ccc(OC)cc2COC(C)C)s1 [compound 44, (2S)-2-{[(2S)-2-hydroxy-3,3-dimethylbutanoyl]amino}-N-{5-[2-(isopropoxymethyl)-4-methoxyphenyl]-1,3-thiazol-2-yl}pentanamide] | 79
3 | CCC[C@H](NC(=O)[C@@H](O)C(C)(C)C)C(=O)Nc1ncc(-c2ccccc2COc2c(F)cccc2F)s1 [compound 46, (2S)—N-(5-{2-[(2,6-difluorophenoxy)methyl]phenyl}-1,3-thiazol-2-yl)-2-{[(2S)-2-hydroxy-3,3-dimethylbutanoyl]amino}pentanamide] | 63.5
4 | CCC[C@H](NC(=O)[C@@H](O)C(C)(C)C)C(=O)Nc1ncc(-c2ccc(Cl)cc2COc2ccccc2)s1 [compound 47, (2S)—N-{5-[4-chloro-2-(phenoxymethyl)phenyl]-1,3-thiazol-2-yl}-2-{[(2S)-2-hydroxy-3,3-dimethylbutanoyl]amino}pentanamide] | 93.5
5 | CCC[C@H](NC(=O)[C@@H](O)C(C)(C)C)C(=O)Nc1ncc(-c2ccc(F)cc2COc2ccccc2)s1 [compound 48, (2S)—N-{5-[4-fluoro-2-(phenoxymethyl)phenyl]-1,3-thiazol-2-yl}-2-{[(2S)-2-hydroxy-3,3-dimethylbutanoyl]amino}pentanamide] | 75.5
6 | CCC[C@H](NC(=O)[C@@H](O)CC(C)C)C(=O)Nc1ncc(-c2ccccc2COC2CCCCC2)s1 [compound 51, (2S)—N-((1S)-1-{[(5-{2-[(cyclohexyloxy)methyl]phenyl}-1,3-thiazol-2-yl)amino]carbonyl}butyl)-2-hydroxy-4-methylpentanamide] | 158
7 | CCC[C@H](NC(=O)[C@@H](O)C(C)(C)C)C(=O)Nc1ncc(-c2ccc(OCC)cc2COc2ccccc2)s1 [compound 52, (2S)—N-{5-[4-ethoxy-2-(phenoxymethyl)phenyl]-1,3-thiazol-2-yl}-2-{[(2S)-2-hydroxy-3,3-dimethylbutanoyl]amino}pentanamide] | 81
8 | CCC[C@H](NC(=O)[C@@H](O)C(C)(C)C)C(=O)Nc1ncc(-c2ccccc2COC2CCCCC2)s1 [compound 57, (2S)—N-(5-{2-[(cyclohexyloxy)methyl]phenyl}-1,3-thiazol-2-yl)-2-{[(2S)-2-hydroxy-3,3-dimethylbutanoyl]amino}pentanamide] | 88
9 | C[C@H](NC(=O)[C@@H](O)C(C)(C)C)C(=O)Nc1ncc(-c2ccccc2COc2ccccc2)s1 [compound 58, (2S)-2-hydroxy-3,3-dimethyl-N-[(1S)-1-methyl-2-oxo-2-({5-[2-(phenoxymethyl)phenyl]-1,3-thiazol-2-yl}amino)ethyl]butanamide] | 118.6
10 | CCC[C@H](NC(=O)[C@@H](O)C(C)(C)C)C(=O)Nc1ncc(-c2ccccc2COc2cccc(C#N)c2)s1 [compound 61, (2S)—N-(5-{2-[(3-cyanophenoxy)methyl]phenyl}-1,3-thiazol-2-yl)-2-{[(2S)-2-hydroxy-3,3-dimethylbutanoyl]amino}pentanamide] | 162.6
11 | CCC[C@H](NC(=O)[C@@H](O)C(C)(C)C)C(=O)Nc1ncc(-c2ccccc2COc2cccc(F)c2)s1 [compound 62, (2S)—N-(5-{2-[(3-fluorophenoxy)methyl]phenyl}-1,3-thiazol-2-yl)-2-{[(2S)-2-hydroxy-3,3-dimethylbutanoyl]amino}pentanamide] | 160.2
12 | C[C@H](NC(=O)[C@@H](O)C(C)(C)C)C(=O)Nc1ncc(-c2ccccc2COC2CCCCC2)s1 [compound 66, (2S)—N-{(1S)-2-[(5-{2-[(cyclohexyloxy)methyl]phenyl}-1,3-thiazol-2-yl)amino]-1-methyl-2-oxoethyl}-2-hydroxy-3,3-dimethylbutanamide] | 104.8
13 | CCC[C@H](NC(=O)[C@@H](O)C(C)(C)C)C(=O)Nc1ncc(-c2ccccc2COc2cc(C)ccc2Cl)s1 [compound 67, (2S)—N-(5-{2-[(2-chloro-5-methylphenoxy)methyl]phenyl}-1,3-thiazol-2-yl)-2-{[(2S)-2-hydroxy-3,3-dimethylbutanoyl]amino}pentanamide] | 82
14 | CCC[C@H](NC(=O)[C@@H](O)C(C)(C)C)C(=O)Nc1ncc(-c2ccccc2COc2cccc(C)c2)s1 [compound 68, (2S)-2-{[(2S)-2-hydroxy-3,3-dimethylbutanoyl]amino}-N-(5-{2-[(3-methylphenoxy)methyl]phenyl}-1,3-thiazol-2-yl)pentanamide] | 80.6
15 | CCC[C@H](NC(=O)[C@@H](O)C(C)(C)C)C(=O)Nc1ncc(-c2ccccc2COc2ccccc2C#N)s1 [compound 69, (2S)—N-(5-{2-[(2-cyanophenoxy)methyl]phenyl}-1,3-thiazol-2-yl)-2-{[(2S)-2-hydroxy-3,3-dimethylbutanoyl]amino}pentanamide] | 99
16 | CCC[C@H](NC(=O)[C@@H](O)C(C)(C)C)C(=O)Nc1ncc(-c2ccccc2COc2cc(C)c(C)cc2Cl)s1 [compound 71, (2S)—N-(5-{2-[(2-chloro-4,5-dimethylphenoxy)methyl]phenyl}-1,3-thiazol-2-yl)-2-{[(2S)-2-hydroxy-3,3-dimethylbutanoyl]amino}pentanamide] | 85
17 | CCC[C@H](NC(=O)[C@@H](O)C(C)(C)C)C(=O)Nc1ncc(-c2ccccc2COc2ccc(Cl)c(C)c2)s1 [compound 72, (2S)—N-(5-{2-[(4-chloro-3-methylphenoxy)methyl]phenyl}-1,3-thiazol-2-yl)-2-{[(2S)-2-hydroxy-3,3-dimethylbutanoyl]amino}pentanamide] | 83.4
18 | CCC[C@H](NC(=O)[C@@H](O)C(C)(C)C)C(=O)Nc1ncc(-c2ccccc2COc2cccc(Cl)c2Cl)s1 [compound 73, (2S)—N-(5-{2-[(2,3-dichlorophenoxy)methyl]phenyl}-1,3-thiazol-2-yl)-2-{[(2S)-2-hydroxy-3,3-dimethylbutanoyl]amino}pentanamide] | 71.1
19 | CCC[C@H](NC(=O)[C@@H](O)C(C)(C)C)C(=O)Nc1ncc(-c2ccccc2COc2cccc(F)c2F)s1 [compound 74, (2S)—N-(5-{2-[(2,3-difluorophenoxy)methyl]phenyl}-1,3-thiazol-2-yl)-2-{[(2S)-2-hydroxy-3,3-dimethylbutanoyl]amino}pentanamide] | 82

Further lines, results first:

Row | melting point [°C] | SMILES
20 | 159.5 | CCC[C@H](NC(=O)[C@@H](O)C(C)C)C(=O)Nc1ncc(-c2ccc(OC)cc2COc2ccccc2)s1 [compound 49, (2S)-2-{[(2S)-2-hydroxy-3-methylbutanoyl]amino}-N-{5-[4-methoxy-2-(phenoxymethyl)phenyl]-1,3-thiazol-2-yl}pentanamide]
21 | 107.8 | CCC[C@H](NC(=O)[C@@H](O)C(C)C)C(=O)Nc1ncc(-c2ccc(OCC)cc2COc2ccccc2)s1 [compound 53, (2S)—N-{5-[4-ethoxy-2-(phenoxymethyl)phenyl]-1,3-thiazol-2-yl}-2-{[(2S)-2-hydroxy-3-methylbutanoyl]amino}pentanamide]
22 | 105.4 | CCC[C@H](NC(=O)[C@@H](O)C(C)(C)C)C(=O)Nc1ncc(-c2cc(F)ccc2COc2ccccc2)s1 [compound 54, (2S)—N-{5-[5-fluoro-2-(phenoxymethyl)phenyl]-1,3-thiazol-2-yl}-2-{[(2S)-2-hydroxy-3,3-dimethylbutanoyl]amino}pentanamide]
23 | 120.7 | CCC[C@H](NC(=O)[C@@H](O)C(C)(C)C)C(=O)Nc1ncc(-c2cc(Cl)ccc2COc2ccccc2)s1 [compound 55, (2S)—N-{5-[5-chloro-2-(phenoxymethyl)phenyl]-1,3-thiazol-2-yl}-2-{[(2S)-2-hydroxy-3,3-dimethylbutanoyl]amino}pentanamide]
24 | 61.4 | CCC[C@H](NC(=O)[C@@H](O)C(C)C)C(=O)Nc1ncc(-c2cc(F)ccc2COc2ccccc2)s1 [compound 56, (2S)—N-{5-[5-fluoro-2-(phenoxymethyl)phenyl]-1,3-thiazol-2-yl}-2-{[(2S)-2-hydroxy-3-methylbutanoyl]amino}pentanamide]
25 | 92.6 | CCC[C@H](NC(=O)[C@@H](O)C(C)(C)C)C(=O)Nc1ncc(-c2ccc(C)cc2COc2ccccc2)s1 [compound 59, (2S)-2-{[(2S)-2-hydroxy-3,3-dimethylbutanoyl]amino}-N-{5-[4methyl-2-(phenoxymethyl)phenyl]-1,3-thiazol-2-yl}pentanamide]
26 | 125.5 | CCC[C@H](NC(=O)[C@@H](O)C(C)C)C(=O)Nc1ncc(-c2cc(C)ccc2COc2ccccc2)s1 [compound 60, (2S)-2-{[(2S)-2-hydroxy-3-methylbutanoyl]amino}-N-{5-[5-methyl-2-(phenoxymethyl)phenyl]-1,3-thiazol-2-yl}pentanamide]
27 | 130.7 | CCC[C@H](NC(=O)[C@@H](O)C(C)C)C(=O)Nc1ncc(-c2ccccc2COc2cccc(F)c2)s1 [compound 63, (2S)—N-(5-{2-[(3-fluorophenoxy)methyl]phenyl}-1,3-thiazol-2-yl)-2-{[(2S)-2-hydroxy-3-methylbutanoyl]amino}pentanamide]
28 | 170 | CCC[C@H](NC(=O)[C@@H](O)C(C)(C)C)C(=O)Nc1ncc(-c2cc(C)ccc2COc2ccccc2)s1 [compound 64, (2S)-2-{[(2S)-2-hydroxy-3,3-dimethylbutanoyl]amino}-N-{5-[5-methyl-2-(phenoxymethyl)phenyl]-1,3-thiazol-2-yl}pentanamide]
29 | 135.5 | CCC[C@H](NC(=O)[C@@H](O)C(C)C)C(=O)Nc1ncc(-c2ccc(C)cc2COc2ccccc2)s1 [compound 65, (2S)-2-{[(2S)-2-hydroxy-3-methylbutanoyl]amino}-N-{5-[4-methyl-2-(phenoxymethyl)phenyl]-1,3-thiazol-2-yl}pentanamide]
